Patent US12194033B2, “Glycine receptor modulators and methods of use” (University of Pittsburgh—Of the Commonwealth System of …, priority 2017, dated 2025)

How the values were obtained:
hERG = hERG (Homo sapiens, UniProt Q12809); assay: Radioligand binding assay, off-target profiling; settings: 10 µM MJPY1, mean, n = 4
mice = assay: Two-plate thermal preference test (30° C. vs 55° C.); format: in vivo
Experimental: Responses to the two-plate thermal preference test were assessed under naïve conditions and 1 hour after administration of 0.2 mg/kg compound 1, 0.1 mg/kg morphine, or 0.2 mg/kg compound 1+0.1 mg/kg morphine. Unrestrained mice were exposed to plates set to normal and hot temperatures (30° C. and 55° C., respectively). Temperature preference was measured by percentage time spent on the hot plate (55° C.) over the course of 4 minutes, where 50% indicates no preference between the two temperatures. […] Error bars designate the standard error of the mean (n≥5).
Unrestrained mice were exposed to plates set to normal and hot temperatures (30° C. and 55° C., respectively) for 10 minutes. […] Error bars designate the standard error of the mean (n=4).
The percent inactivity on the 55° C. plate (mean±SEM) is a measure of heat tolerance. Significance was assessed by one-way ANOVA with LSD post-hoc test.

human α3GlyR = target: T1, human α3GlyR (Homo sapiens, UniProt O75311); assay: In vitro functional electrophysiology in Xenopus laevis oocytes; format: cell-based
T1 construct: expressed in transfected cells; host or cells: Xenopus laevis oocytes
T1 sequence (O75311 34-464): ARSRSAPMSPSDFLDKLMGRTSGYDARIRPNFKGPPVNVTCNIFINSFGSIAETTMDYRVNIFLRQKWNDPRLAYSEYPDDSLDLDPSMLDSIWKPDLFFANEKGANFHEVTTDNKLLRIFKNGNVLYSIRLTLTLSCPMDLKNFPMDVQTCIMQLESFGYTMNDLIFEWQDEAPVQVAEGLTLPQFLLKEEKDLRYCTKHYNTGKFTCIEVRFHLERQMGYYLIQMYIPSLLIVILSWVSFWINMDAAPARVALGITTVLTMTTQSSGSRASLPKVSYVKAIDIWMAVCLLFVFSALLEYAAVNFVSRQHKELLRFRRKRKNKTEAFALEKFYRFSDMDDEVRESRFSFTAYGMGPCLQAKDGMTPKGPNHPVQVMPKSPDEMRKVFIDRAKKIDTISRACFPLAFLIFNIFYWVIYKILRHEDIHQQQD
Experimental: I/Io is calculated as the ratio of the current measured in the presence (I) and absence (Io) of compound 1 or THC at the indicated concentrations. Error bars designate the standard error of the mean (n≥4).
FIGS. 2A and 2B are bar graphs showing the effect of compound 1 on modulation of human glycine receptor subtypes (α1GlyR, α3GlyR, α1βGlyR, and α3βGlyR) expressed in Xenopus laevis oocytes activated by 2% (FIG. 2A) and 20% (FIG. 2B) maximal effective concentration of glycine. I/Io was calculated as the ratio of the current measured in the presence (I) and absence (Io) of 10 μM compound 1. Error bars designate the standard error of the mean (n≥4).
The compounds disclosed in Table 1 were assessed for in vitro modulation of human GlyRs. […] The assessed compounds were compounds 1 (3A), 2 (3B), 3 (3C), 4 (3D), 5 (3E), 6 (3F), 7 (3G), and 8 (3H). I/Io was calculated as the ratio of the current measured in the presence (I) and absence (Io) of 10 μM of the indicated compound. […]
MJPY1 potentiates α3GlyR through binding to the THC-binding site near S296 in the transmembrane domain (TMD). […] Data were recorded at EC2 agonist for the indicated channels and are reported as the ratio of currents in the presence (I) and absence (Io) of 10 μM compound 1 (MJPY1). […]

[1] = tested on: chimera ELIC-α3GlyR containing the α3GlyR TMD; assay: Electrophysiology on Xenopus laevis oocytes, chimera; format: cell-based; settings: EC2 agonist, 10 μM compound
Experimental: MJPY1 potentiates α3GlyR through binding to the THC-binding site near S296 in the transmembrane domain (TMD). Like α3GlyR, but unlike ELIC, the chimera ELIC-α3GlyR containing the α3GlyR TMD is potentiated by MJPY1. The S296A mutation in α3GlyR abolishes compound 1 (MJPY1)'s potentiation. Data were recorded at EC2 agonist for the indicated channels and are reported as the ratio of currents in the presence (I) and absence (Io) of 10 μM compound 1 (MJPY1). Error bars represent SEM (n≥4 oocytes).

C57Bl/6J mice = assay: Hargreaves test in C57Bl/6J mice; format: in vivo
Experimental: In vivo mouse behavior tests validated the analgesic action of the representative compounds in response to inflammation. Responses of C57Bl/6J mice to the Hargreaves test (Pain, 32:77-88, 1988) were assessed pre- and post-application of compound 1 alone (white circles, application time=0 hours). […] Error bars designate the standard error of the mean (n≥4).

MOR = MOR (Homo sapiens, UniProt P35372); assay: Radioligand binding assay, off-target profiling; settings: 10 M MJPY1, mean, n = 4
[2] = tested on: TA100 strain Salmonella typhimurium; assay: In vitro Ames test; format: cell-based; settings: S9 rat liver extract
Experimental: Toxicity was evaluated using in vitro Ames test and in vivo immune responses flow cytometry. Compound 1 (MJPY1) at each concentration was tested in three 48-well plates using the TA100 strain Salmonella typhimurium and S9 rat liver extract for base-pair substitution mutations. Error bars represent SEM. Significance (p<0.05) was evaluated compared to the control (0 μM) using one-way ANOVA with the Bonferroni post-hoc test. FIGS. 15A and 15B show flow cytometry evaluation of common inflammatory markers in the liver and spleen of mice in response to compound 1 (MJPY1) treatment. Mice received either 2 mg/kg of MJPY1 (right) or vehicle (left) ˜16 hours prior to sacrifice and tissue collection. Significant differences between the treatment and control were observed only for decreased CD11b+ in the liver of mice treated with MJPY1 (p<0.001). […] Results were analyzed by one-way ANOVA with Bonferroni post-hoc test.

KOR = KOR (Homo sapiens, UniProt P41145); assay: Radioligand binding assay, off-target profiling; settings: 10 M MJPY1, mean, n = 4
4 2-nAChR = 4 2-nAChR (Homo sapiens, UniProt P17787+P43681); assay: Radioligand binding assay, off-target profiling; settings: 10 M MJPY1, mean, n = 4
NOR = NOR (Homo sapiens, UniProt P41146); assay: Radioligand binding assay, off-target profiling; settings: 10 M MJPY1, mean, n = 4
NMDAR = assay: Radioligand binding assay, off-target profiling; settings: 10 M MJPY1, mean, n = 4

KOR, sequence (P41145 whole entry): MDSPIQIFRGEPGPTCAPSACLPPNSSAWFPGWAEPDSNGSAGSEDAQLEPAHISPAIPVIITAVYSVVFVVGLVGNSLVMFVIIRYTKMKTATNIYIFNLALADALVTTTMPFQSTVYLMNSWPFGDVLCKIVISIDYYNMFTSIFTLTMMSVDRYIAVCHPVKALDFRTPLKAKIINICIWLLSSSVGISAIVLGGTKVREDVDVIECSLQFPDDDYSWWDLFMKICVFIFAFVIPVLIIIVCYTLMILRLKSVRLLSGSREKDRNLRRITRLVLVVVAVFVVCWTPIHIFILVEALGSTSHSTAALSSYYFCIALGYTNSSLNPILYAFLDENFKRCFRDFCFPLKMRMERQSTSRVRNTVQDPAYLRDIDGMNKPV
hERG, sequence (Q12809 whole entry): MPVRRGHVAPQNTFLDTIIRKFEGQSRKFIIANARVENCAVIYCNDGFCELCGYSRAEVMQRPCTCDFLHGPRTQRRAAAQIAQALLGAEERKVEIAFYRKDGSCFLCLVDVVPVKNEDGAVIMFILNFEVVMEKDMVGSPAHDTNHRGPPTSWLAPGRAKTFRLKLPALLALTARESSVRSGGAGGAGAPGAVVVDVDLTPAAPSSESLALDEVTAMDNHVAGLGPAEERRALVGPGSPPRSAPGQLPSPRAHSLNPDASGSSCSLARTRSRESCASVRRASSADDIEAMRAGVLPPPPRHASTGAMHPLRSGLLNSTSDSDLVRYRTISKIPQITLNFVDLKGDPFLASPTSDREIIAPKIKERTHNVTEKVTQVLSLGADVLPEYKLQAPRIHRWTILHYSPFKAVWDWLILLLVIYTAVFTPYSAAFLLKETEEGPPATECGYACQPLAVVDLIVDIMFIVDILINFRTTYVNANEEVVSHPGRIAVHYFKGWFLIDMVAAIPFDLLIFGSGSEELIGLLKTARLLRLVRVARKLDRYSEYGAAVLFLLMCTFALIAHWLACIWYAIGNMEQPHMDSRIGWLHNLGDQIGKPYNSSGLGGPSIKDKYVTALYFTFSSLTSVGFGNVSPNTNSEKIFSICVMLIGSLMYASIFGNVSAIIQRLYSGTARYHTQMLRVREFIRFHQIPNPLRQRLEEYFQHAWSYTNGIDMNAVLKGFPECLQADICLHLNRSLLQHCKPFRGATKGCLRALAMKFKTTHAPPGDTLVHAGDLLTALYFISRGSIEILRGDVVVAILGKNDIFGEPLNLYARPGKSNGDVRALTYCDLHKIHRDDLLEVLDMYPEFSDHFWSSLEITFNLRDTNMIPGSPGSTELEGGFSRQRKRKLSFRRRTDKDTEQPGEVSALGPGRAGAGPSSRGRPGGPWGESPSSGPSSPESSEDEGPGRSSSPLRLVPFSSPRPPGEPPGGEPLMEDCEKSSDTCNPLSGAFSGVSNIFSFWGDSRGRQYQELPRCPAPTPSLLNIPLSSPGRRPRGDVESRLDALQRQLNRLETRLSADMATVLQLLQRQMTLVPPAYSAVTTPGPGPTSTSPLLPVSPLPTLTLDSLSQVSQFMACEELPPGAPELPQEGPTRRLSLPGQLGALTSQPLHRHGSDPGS
4 2-nAChR, sequence (P43681 29-627 limits assumed): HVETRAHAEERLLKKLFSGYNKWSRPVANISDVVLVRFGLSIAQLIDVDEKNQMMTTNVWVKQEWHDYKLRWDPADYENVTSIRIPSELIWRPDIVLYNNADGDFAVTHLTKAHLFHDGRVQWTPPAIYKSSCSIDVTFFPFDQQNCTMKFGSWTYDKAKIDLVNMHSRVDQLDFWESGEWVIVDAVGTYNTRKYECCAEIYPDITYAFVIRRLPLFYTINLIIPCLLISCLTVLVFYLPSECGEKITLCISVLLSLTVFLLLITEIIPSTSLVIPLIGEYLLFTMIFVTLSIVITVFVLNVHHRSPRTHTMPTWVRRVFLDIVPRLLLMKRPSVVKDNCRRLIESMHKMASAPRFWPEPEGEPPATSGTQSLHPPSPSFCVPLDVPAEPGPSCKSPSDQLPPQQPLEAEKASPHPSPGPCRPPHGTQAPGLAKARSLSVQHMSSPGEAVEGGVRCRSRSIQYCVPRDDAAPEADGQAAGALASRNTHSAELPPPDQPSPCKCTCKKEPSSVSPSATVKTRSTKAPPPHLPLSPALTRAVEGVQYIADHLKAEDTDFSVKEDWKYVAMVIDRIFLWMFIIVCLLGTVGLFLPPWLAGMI
4 2-nAChR, sequence (P17787 26-502): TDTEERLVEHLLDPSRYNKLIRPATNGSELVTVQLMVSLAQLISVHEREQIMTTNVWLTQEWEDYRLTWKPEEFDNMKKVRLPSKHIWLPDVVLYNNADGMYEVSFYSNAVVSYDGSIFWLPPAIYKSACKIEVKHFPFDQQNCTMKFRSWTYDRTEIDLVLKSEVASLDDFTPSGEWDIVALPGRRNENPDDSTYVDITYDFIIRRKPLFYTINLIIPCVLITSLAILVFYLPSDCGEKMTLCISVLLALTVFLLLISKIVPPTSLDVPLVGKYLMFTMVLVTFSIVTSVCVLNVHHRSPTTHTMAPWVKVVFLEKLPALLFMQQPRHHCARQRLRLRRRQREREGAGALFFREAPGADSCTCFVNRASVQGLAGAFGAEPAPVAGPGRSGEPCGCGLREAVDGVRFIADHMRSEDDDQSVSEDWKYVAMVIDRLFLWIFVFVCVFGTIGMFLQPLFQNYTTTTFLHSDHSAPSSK
MOR, sequence (P35372 whole entry): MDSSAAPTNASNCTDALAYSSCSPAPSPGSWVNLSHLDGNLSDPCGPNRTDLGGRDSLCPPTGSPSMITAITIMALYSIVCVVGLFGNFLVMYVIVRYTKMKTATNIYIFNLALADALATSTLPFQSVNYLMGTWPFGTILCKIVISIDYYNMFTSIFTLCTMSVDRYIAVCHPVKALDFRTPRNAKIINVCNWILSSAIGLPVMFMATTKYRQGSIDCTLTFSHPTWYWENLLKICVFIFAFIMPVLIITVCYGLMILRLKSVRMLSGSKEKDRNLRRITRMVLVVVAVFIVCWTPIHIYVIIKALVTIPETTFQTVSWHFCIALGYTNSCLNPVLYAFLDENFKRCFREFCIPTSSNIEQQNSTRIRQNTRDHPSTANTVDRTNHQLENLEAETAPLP
NOR, sequence (P41146 whole entry): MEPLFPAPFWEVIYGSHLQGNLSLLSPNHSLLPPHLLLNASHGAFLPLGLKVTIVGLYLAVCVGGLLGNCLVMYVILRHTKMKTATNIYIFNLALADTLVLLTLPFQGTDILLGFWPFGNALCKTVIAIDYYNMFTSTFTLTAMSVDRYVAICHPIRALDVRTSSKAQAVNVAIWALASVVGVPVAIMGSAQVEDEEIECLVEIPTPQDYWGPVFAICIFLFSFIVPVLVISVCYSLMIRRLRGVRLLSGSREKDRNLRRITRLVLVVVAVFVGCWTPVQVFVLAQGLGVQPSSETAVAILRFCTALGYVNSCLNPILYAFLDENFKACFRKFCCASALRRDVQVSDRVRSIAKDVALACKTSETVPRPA

With `NC(=O)c1cccc(CNC(=O)c2ccc3c4c(cccc24)CC3)c1` [compound 1, N-[(3-carbamoylphenyl)-methyl]-1,2-dihydroacenaphthylene-5-carboxamide] the inhibition at 10 µM (hERG) was -19.5%, the “analgesic action compared with morphine (percent inactivity on the 55° C. plate)” value (mice; 0.1 mg/kg i.p., male CD1 mice, 24 hr after CFA, 1 hr after treatment, same dose) was “better than morphine” and the “percentage time spent on the hot plate (55° C.) compared to naïve mice” value (mice; normal nociception, 1 hour after 0.2 mg/kg compound 1, 0.1 mg/kg morphine, or both, 4 minutes) was “no significant analgesic response”. The “potentiation of α3GlyR (I/Io)” value (human α3GlyR; EC2 agonist, 10 μM compound) was “potentiates”, the “modulation of human GlyRs (I/Io)” value (human α3GlyR; Xenopus laevis oocytes, 2% maximal effective concentration of glycine) was “modulated” and the “potentiation of chimera ELIC-α3GlyR (I/Io)” value [1] was “potentiated”. The “response time for paw withdrawal” value (C57Bl/6J mice; maximum CFA-induced hyperalgesic conditions (24 hours post CFA)) was “increase in response time”, the “response time for paw withdrawal” value (C57Bl/6J mice; normal nociceptive conditions) was “no significant effect” and the “% Inhibition MOR” value (MOR) was 20.6%. The “mutagenic activity (base-pair substitution mutations)” value [2] was “little mutagenic activity”, the “% Inhibition KOR” value (KOR) was 5.0% and the “% Inhibition 4 2-nAChR” value (4 2-nAChR) was −1.8%. The “% Inhibition NOR” value (NOR) was −16.8% and the “% Inhibition NMDAR” value (NMDAR) was −2.4%.
